Pest or weed control data for 35 molecules are collected here from patent publication US8853246B2 (Dow AgroSciences LLC, priority 2009, dated 2014).

For test [1], the system named is Sweetpotato Whitefly-Crawler (Bemisia Tabaci). The test can be described thus: Insecticidal test for sweetpotato whitefly-crawler in foliar spray assay (col. BEMITA). It counts as in vivo. To be noted: Bemisia tabaci, sweetpotato whitefly-crawler, read-out: BEMITA 200 ppm (Corrected % Control, rating). As to the method:
(§1) The compounds were tested against cotton aphid, green peach aphid, and sweet potato whitefly using procedures described in the following examples and reported in Table 2.
(§2) In each case of Table 2, the rating scale is as follows at 200 ppm.
Insecticidal Test for Sweetpotato Whitefly-Crawler (Bemisia Tabaci) in Foliar Spray Assay
Cotton plants grown in 3-inch pots, with 1 small (3-5 cm) true leaf, were used as test substrate. The plants were placed in a room with whitefly adults. Adults were allowed to deposit eggs for 2-3 days. After a 2-3 day egg-laying period, plants were taken from the adult whitefly room. Adults were blown off leaves using a hand-held Devilbiss sprayer (23 psi). Plants with egg infestation (100-300 eggs per plant) were placed in a holding room for 5-6 days at 82° F. and 50% RH for egg hatch and crawler stage to develop. Four cotton plants were used for each treatment. Compounds (2 mg) were dissolved in 1 mL of acetone solvent, forming stock solutions of 2000 ppm. The stock solutions were diluted 10× with 0.025% Tween 20 in H2O to obtain a test solution at 200 ppm. A hand-held Devilbiss sprayer was used for spraying a solution to both sides of cotton leaf until runoff. Reference plants (solvent check) were sprayed with the diluent only. Treated plants were held in a holding room for 8-9 days at approximately 82° F. and 50% RH prior to grading. Evaluation was conducted by counting the number of live nymphs per plant under a microscope. Insecticidal activity was measured by using Abbott's correction formula and presented in Table 2 (see col. “BEMITA”): Corrected % Control=100*(X−Y)/X • where X=No. of live nymphs on solvent check plants • Y=No. of live nymphs on treated plants Pesticidally Acceptable Acid Addition Salts, Salt Derivatives, Solvates, Ester Derivatives, Polymorphs, Isotopes and Radionuclides

The test system of test [2] is Green Peach Aphid (Myzus Persicae). In words: Insecticidal test for green peach aphid in foliar spray assay (col. MYZUPE). It counts as in vivo. To be noted: Myzus persicae, 72 h, green peach aphid, read-out: MYZUPE 200 ppm (Corrected % Control, rating). As to the method:
as §1, §2
Insecticidal Test for Green Peach Aphid (Myzus Persicae) in Foliar Spray Assay
Cabbage seedlings grown in 3-inch pots, with 2-3 small (3-5 cm) true leaves, were used as test substrate. The seedlings were infested with 20-50 green peach aphids (wingless adult and nymph) one day prior to chemical application. Four pots with individual seedlings were used for each treatment. Compounds (2 mg) were dissolved in 2 mL of acetone/methanol (1:1) solvent, forming stock solutions of 1000 ppm. The stock solutions were diluted 5× with 0.025% Tween 20 in H2O to obtain a test solution at 200 ppm. A hand-held Devilbiss sprayer was used for spraying a solution to both sides of cabbage leaves until runoff. Reference plants (solvent check) were sprayed with the diluent only. Treated plants were held in a holding room for three days at approximately 25° C. and 40% relative humidity (RH) prior to grading. Evaluation was conducted by counting the number of live aphids per plant under a microscope. Corrected % Control=100*(X−Y)/X • where X=No. of live aphids on solvent check plants • Y=No. of live aphids on treated plants

Each structure is given as a SMILES string.

Take `CSCC(C)C(=O)N(C(=O)OC(C)(C)C)c1sc(-c2cncc(C)c2)nc1C` (stereo not shown) [Compound 156, [4-methyl-2-(5-methyl-pyridin-3-yl)-thiazol-5-yl]-(2-methyl-3-methylsulfanyl-propionyl)-carbamic acid tert-butyl ester]: the values for the pest or weed control at 200 ppm in test [1] and in test [2] were under 80% and 80 to 100%, respectively.

`CSCC(C)C(=O)N(C(=O)OC(C)(C)C)c1sc(-c2cncc(S(C)(=O)=O)c2)nc1C` (stereo not shown) [Compound 157]: the pest or weed control at 200 ppm in test [1] and in test [2] was under 80% each time.

Consider `Cc1nc(-c2ccc(F)nc2)sc1N(C(=O)C(C)C)C(=O)C(C)C` [Compound 162], for which the pest or weed control at 200 ppm in test [1] and in test [2] was 80 to 100% each time.

Consider `Cc1nc(-c2cncc(F)c2)sc1NC(=O)C(C)CS(C)(=O)=NC#N` (stereo not shown) [Compound 164, 3-[cyano(methyl)sulfonimidoyl]-N-[2-(5-fluoropyridin-3-yl)-4-methyl-1,3-thiazol-5-yl]-2-methylpropanamide], for which the pest or weed control at 200 ppm in test [1] is under 80%; in test [2], 80 to 100%.

Take `Cc1nc(-c2cncc(F)c2)sc1N(C)C(=O)OC(C)(C)C` [Compound 165]: the pest or weed control at 200 ppm in test [1] and in test [2] was 80 to 100% throughout.

On to `Cc1nc(-c2cncc(F)c2)sc1N(C)C(=O)C(C)CS(=O)(Cc1ccc(Cl)nc1)=NC#N` (stereo not shown) [Compound 167], for which the pest or weed control at 200 ppm in test [1] was 80 to 100%; in test [2], under 80%.

In the case of `Cc1nc(-c2cncc(F)c2)sc1N(C)C(=O)C(C)CS(C)(=O)=NC#N` (stereo not shown) [Compound 168], the pest or weed control at 200 ppm in test [1] and in test [2] was 80 to 100% each time.

Consider `CCOC(=O)c1cncc(-c2nc(C)c(NC(=O)C(C)CSC)s2)c1` (stereo not shown) [Compound 170], for which the pest or weed control at 200 ppm in test [1] and in test [2] was under 80% in each case.

For `CSCC(C)C(=O)Nc1sc(-c2cncc(C)c2)nc1C` (stereo not shown) [Compound 171, 2-methyl-N-[4-methyl-2-(5-methyl-pyridin-3-yl)-thiazol-5-yl]-3-methylsulfanyl-propionamide], the pest or weed control at 200 ppm in test [1] was under 80%; in test [2] it was 80 to 100%.

Take `CSCC(C)C(=O)N(C(=O)C(C)CSC)c1sc(-c2cccnc2)nc1C` (stereo not shown) [Compound 173]: the pest or weed control at 200 ppm in test [1] and in test [2] was 80 to 100% in each case.

With `CN(C(=O)CC[S+](C)[O-])c1sc(-c2cccnc2)nc1Cl` (stereo not shown) [Compound 174], the pest or weed control at 200 ppm in test [1] and in test [2] was 80 to 100% in each case.

In the case of `COc1cncc(-c2nc(C)c(N(C(=O)OC(C)(C)C)C(=O)C(C)CSC)s2)c1` (stereo not shown) [Compound 176], the pest or weed control at 200 ppm in test [1] and in test [2] was under 80% throughout.

Take `CSCC(C)C(=S)Nc1sc(-c2cccnc2)nc1C` (stereo not shown) [Compound 180, 2-methyl-N-(4-methyl-2-pyridin-3-yl-thiazol-5-yl)-3-methylsulfanyl-thiopropionamide]: the pest or weed control at 200 ppm in test [1] and in test [2] was 80 to 100% in each case.

Consider `CSCC(C)C(=O)N(C(=O)C(C)C)c1sc(-c2cccnc2)nc1C` (stereo not shown) [Compound 183], for which the pest or weed control at 200 ppm in test [1] and in test [2] was 80 to 100% throughout.

Regarding `CSCC(C)C(=O)N(C(C)=O)c1sc(-c2cccnc2)nc1C` (stereo not shown) [Compound 184], the pest or weed control at 200 ppm in test [1] and in test [2] was 80 to 100% throughout.

As to `CSCCC(=O)N(C(=O)CCSC)c1sc(-c2cncc(F)c2)nc1C` [Compound 185], the pest or weed control at 200 ppm in test [1] and in test [2] was 80 to 100% throughout.

Take `CSCC(C)C(=O)N(C(=O)C(C)CSC)c1sc(-c2cncc(F)c2)nc1C` (stereo not shown) [Compound 188]: the pest or weed control at 200 ppm in test [1] and in test [2] was 80 to 100% each time.

In the case of `COC(=O)CCC(=O)N(C(=O)C(C)CSC)c1sc(-c2cccnc2)nc1C` (stereo not shown) [Compound 189], the pest or weed control at 200 ppm in test [1] and in test [2] was 80 to 100% each time.

Take `Cc1nc(-c2cncc(F)c2)sc1N(C)C(=O)C(C)CSCc1ccc(Cl)cc1` (stereo not shown) [Compound 190]: the pest or weed control at 200 ppm in test [1] and in test [2] was 80 to 100% in each case.

Regarding `CCCC(C)(C)OC(=O)Nc1sc(-c2cccnc2)nc1C` [Compound 192], the pest or weed control at 200 ppm in test [1] and in test [2] was 80 to 100% in each case.

As for `Cc1nc(-c2cccnc2)sc1N(C)C(=O)[C@H](C)NC(=O)OC(C)(C)C` [Compound 194], the pest or weed control at 200 ppm in test [1] and in test [2] was 80 to 100% in each case.

Regarding `CSCC(C)C(=O)N(C(=O)C(C)(C)CSC)c1sc(-c2cccnc2)nc1C` (stereo not shown) [Compound 195], the pest or weed control at 200 ppm in test [1] and in test [2] was 80 to 100% throughout.

For the molecule `COCN(C(=O)C(C)CSC)c1sc(-c2cccnc2)nc1C` (stereo not shown) [Compound 196], the pest or weed control at 200 ppm in test [1] and in test [2] was 80 to 100% throughout.

In the case of `Cc1nc(-c2cccnc2)sc1NC(=O)OC1(C)CCCCC1` [Compound 198], the pest or weed control at 200 ppm in test [1] and in test [2] was 80 to 100% in each case.

In the case of `CSCC(C)C(=O)N(C(=O)C(C)C)c1sc(-c2cncc(F)c2)nc1C` (stereo not shown) [Compound 200], the pest or weed control at 200 ppm in test [1] and in test [2] was 80 to 100% in each case.

Take `CSCC(C)C(=O)N(COC(=O)c1ccccc1)c1sc(-c2cccnc2)nc1C` (stereo not shown) [Compound 203, Benzoic acid [(2-methyl-3-methylsulfanyl-propionyl)-(4-methyl-2-pyridin-3-yl-thiazol-5-yl)-amino]-methyl ester]: the pest or weed control at 200 ppm in test [1] and in test [2] was 80 to 100% in each case.

For `C=CC(=O)N(C(=O)C(C)CSC)c1sc(-c2cccnc2)nc1C` (stereo not shown) [Compound 204], the pest or weed control at 200 ppm was under 80% in test [1] and 80 to 100% in test [2].

`Cc1nc(-c2cccnc2)sc1N(C)C(=O)C1CCSC1` (stereo not shown) [Compound 206]: the pest or weed control at 200 ppm in test [1] and in test [2] was 80 to 100% each time.

As for `Cc1nc(-c2cccnc2)sc1N1CCCC1=O` [Compound 211], the pest or weed control at 200 ppm in test [1] and in test [2] was 80 to 100% in each case.

For `CSC(C)CC(=O)N(C)c1sc(-c2cncc(F)c2)nc1C` (stereo not shown) [Compound 213], the pest or weed control at 200 ppm in test [1] and in test [2] was 80 to 100% throughout.

`Cc1nc(-c2cncc(F)c2)sc1N(C)C(=O)C1CCSC1` (stereo not shown) [Compound 214]: the pest or weed control at 200 ppm in test [1] and in test [2] was 80 to 100% throughout.

Turning to `CSC(C)C(C)C(=O)N(C)c1sc(-c2cncc(F)c2)nc1C` (stereo not shown) [Compound 215], the pest or weed control at 200 ppm in test [1] and in test [2] was 80 to 100% throughout.

Take `CSCC(C)C(=O)N(Cc1ccccc1)c1sc(-c2cccnc2)nc1C` (stereo not shown) [Compound 221]: the values for the pest or weed control at 200 ppm in test [1] and in test [2] were under 80% and 80 to 100%, respectively.

Consider `CSCC(C)C(=O)N(c1sc(-c2cccnc2)nc1C)C(C)C` (stereo not shown) [Compound 222], for which the results for the pest or weed control at 200 ppm in test [1] and in test [2] were under 80% and 80 to 100%, respectively.

As to `CSCC(C)C(=O)N(CC(C)C)c1sc(-c2cccnc2)nc1C` (stereo not shown) [Compound 223], the pest or weed control at 200 ppm in test [1] and in test [2] was 80 to 100% in each case.
